{
  "source": "patent US20240124528A1",
  "about": "“ANTAGONIST OF INTERLEUKIN-17B RECEPTOR (IL-17RB) AND USE THEREOF” (Academia Sinica, priority 2020, published 2024)",
  "key": {"[1]": {"test_system": "transgenic pancreatic cancer EKP mice", "assay": "Spontaneous pancreatic cancer model, EKP mice plus cerulein", "type": "in vivo, mouse", "details": "for recruitment of MDSC and M2 macrophage: pancreatic tissues, flow cytometry", "source_text": "FIGS. 7A to 7J include charts showing that disruption of the interaction between IL-17RB and MLK4 by the loop peptide blocks oncogenic progression. (FIG. 7A) Peptides TAT48-57 (Control) (SEQ ID NO: 21) and TAT-IL-17RB403-416 (Loop) (SEQ ID NO: 30) used for the following experiments. (FIG. 7B) Immunoblotting analysis of IL-17RB binding to MLK4 with Loop peptide treatment. 293T cells expressing Flag-MLK4 and HA-IL-17RB were pretreated with the control and loop peptides with different dose (0, 0.1, 1, 10, 50, 100 ng/ml) for 30 mins, and then added rIL-17B for 30 mins. The cell lysates were reciprocally co-immunoprecipitated with anti-Flag and anti-HA and blotted with the indicated antibodies or directly immunoblotted with the indicated antibodies as the input controls. (FIG. 7C to FIG. 7F) CFPAC1cells were pretreated with the peptides for 30 mins and then added rIL-17B for 30 mins. The cell lysates were immunoblotted with the indicated antibodies or immunoprecipitated with anti-IL-17RB or control IgG and blotted with the indicated antibodies (FIG. 7C). CFPAC1 cells were pretreated with TAT48-57 or TAT-IL-17RB403-416 (50 ng/ml) 30 mins and then added rIL-17B for two hrs. CCL20 and TFF/mRNA expression of these cells were measured by RT-qPCR (n=3) (FIG. 7D), the same cells were for invasion assay (n=4) (FIG. 7E) and SACF assay (n=4) (FIG. 7F). (FIG. 7G) The scheme of the treatment of transgenic pancreatic cancer EKP mice (LSL-Kras^+/G12D; p53^+/−; Ela-Cre^ERT; plus cerulein) with the Loop peptides. (FIG. 7H) IHC images of pancreases stained with anti-P-Y447 antibody. Scale bars: 50 μm. The pancreas tissues were from EKP mice after treated with the control or loop peptides at Day 42. The Kras^+/+ mice (Kras^+/+; p53^+/−; Ela-Cre^ERT; plus cerulein) were used as the non-cancerous control. Boxes indicate the enlarged areas. (FIG. 7I) The experimental EKP mice (n=7 for each group) were euthanized at Day 56, and the metastatic tumor nodules in the lungs were counted. (FIG. 7J) Kaplan-Meier survival curve plot of the lifespans of the experimental EKP mice (n=7 for each group). Log-rank test was used.\nFIGS. 20A to 20D include charts showing that treatment of TAT-IL-17RB403-416 peptide reduces the recruitment of MDSC and M2 macrophage. (FIG. 20A) Pancreatic tissues of EKP mice (LSL-Kras+/G12D; p53+/−; Ela-Cre^ERT; plus cerulein) (n=7 for each group) treated with TAT-IL-17RB403-416 (Loop) peptides were examined the tumor-immune modulating capacity by flow cytometry with specific cell surface markers as indicated. […] Data are mean±s.d. *P<0.05, **P<0.01 by two-tailed Student's t-test.\nFormalin-fixed paraffin-embedded primary tumor tissue sections were used for IHC. Heat-induced antigen retrieval was performed using 0.1M citrate buffer, pH 6.0 and autoclaved for 20 mins. Endogenous peroxidase was eliminated with 3% H2O2. Slides were stained with an in-house-generated anti-IL-17RB antibody (A81, 1:2000) and anti-P-Y447 (1:500), respectively in PBS/10% FBS overnight at 4° C. After washing, slides were incubated with anti-rabbit/mouse HRP polymer before visualization with liquid diaminobenzidine tetrahydrochloride plus substrate DAB chromogen from Dako REAL EnVision (Carpinteria, CA). All slides were counterstained with hematoxylin.\nTumors were excised, weighed and measured. Approximately half of each dissected tumor was fixed in formalin for histopathologic analysis. The remaining tumor sections were placed in PBS with 1% (v/v) FBS and mechanically minced. […]"}, "[2]": {"test_system": "pancreatic cancer cells expressing IL-17RB", "assay": "Invasion assay after peptide treatment", "type": "cell-based, human", "details": "CFPAC1 and PDX-derived cells treated with peptide", "source_text": "FIGS. 7A to 7J include charts showing that disruption of the interaction between IL-17RB and MLK4 by the loop peptide blocks oncogenic progression. (FIG. 7A) Peptides TAT48-57 (Control) (SEQ ID NO: 21) and TAT-IL-17RB403-416 (Loop) (SEQ ID NO: 30) used for the following experiments. (FIG. 7B) Immunoblotting analysis of IL-17RB binding to MLK4 with Loop peptide treatment. 293T cells expressing Flag-MLK4 and HA-IL-17RB were pretreated with the control and loop peptides with different dose (0, 0.1, 1, 10, 50, 100 ng/ml) for 30 mins, and then added rIL-17B for 30 mins. […] CCL20 and TFF/mRNA expression of these cells were measured by RT-qPCR (n=3) (FIG. 7D), the same cells were for invasion assay (n=4) (FIG. 7E) and SACF assay (n=4) (FIG. 7F). […] (FIG. 7I) The experimental EKP mice (n=7 for each group) were euthanized at Day 56, and the metastatic tumor nodules in the lungs were counted. […]\nFIGS. 19A to 19D include charts showing that treatment with the loop peptide suppresses aggressive behavior of patient-derived pancreatic tumor cells. […] (FIG. 19C and FIG. 19D) These cells were measured by RT-qPCR for the cytokine gene mRNA expression (n=3), or for Invasion assay (n=4) (FIG. 19C) and SACF assay (n=4) (FIG. 19D). […]"}},
  "data": [
    {"sequence": "RKKRRQRRRVCDGTCGKSEGSPS (IL-17RB inhibitory peptide, fusion protein) [loop peptide]", "values": [
      {"measurement": "lung metastasis nodule formation", "setting": "[1]; EKP mice euthanized at day 56", "result": "suppressed"},
      {"measurement": "expression of P-Y447 IL-17RB in pancreatic tissues (IHC)", "setting": "[1]; EKP mice, Day 42", "result": "diminished"},
      {"measurement": "recruitment of MDSC and M2 macrophage", "setting": "[1]; EKP mice", "result": "reduced"},
      {"measurement": "recruitment of MDSC and M2 macrophage", "setting": "[1]; EKP mice, listed as TAT-IL-17RB403-416", "result": "reduces"},
      {"measurement": "lifespan (Kaplan-Meier survival)", "setting": "[1]; EKP mice, second treatment protocol", "result": "significantly prolonged"},
      {"measurement": "invasion ability", "setting": "[2]", "result": "diminished"}
    ]}
  ]
}
